Measured values as given in the supplement of paper PMC5770543.
± gives the standard deviation.

Key:
[1] = tested on: Plasmodium falciparum 3D7; test: EC50 growth inhibition (60 h, SYBR Green); settings: stage: ring-stage start
[2] = tested on: Plasmodium falciparum 3D7; test: % inhibition of schizont-to-ring transition vs DMSO; higher = more inhibition
Outline: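 Tightly synchronised P. falciparum schizonts (about 40–42 hours post-invasion, 1% parasitemia, 2.5% hematocrit, AlbuMAX-supplemented RPMI) were exposed to compound at 1, 3 or 10 µM, with vehicle and positive controls. Cells were glutaraldehyde-fixed, Triton-permeabilised, stained with Hoechst 33342 and counted by flow cytometry (at least 100,000 events). Schizont-to-ring transition inhibition is new ring formation relative to vehicle controls, averaged over three experiments.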

[3] = tested on: Toxoplasma gondii RH tachyzoites; test: % growth inhibition vs DMSO (48 h luciferase); higher = more inhibition; settings: 10 µM
[4] = tested on: Toxoplasma gondii RH tachyzoites; test: plaque count per well; higher = less inhibition; extreme values may be limits of the assay; settings: 10 µM; 8-10 days
Experimental: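 T. gondii RH tachyzoites expressing firefly luciferase were grown in HFF monolayers for 48 h with compound. % growth inhibition at 10 µM and EC50 (2-fold dilutions from 10 µM) were read by luminescence relative to 1% DMSO; EC50 listed as 10 (not determined, <80% inhibition) is left out. Plaque assays: 50 tachyzoites per well with 10 µM compound for 8-10 days, giving plaque count and area by crystal violet/ImageJ. Egress: median time to egress after 1 µM A23187 ionophore following 24 h of 10 µM compound (DMSO ~1.8 min; >10 = no egress within 10 min).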
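Throughout, for % growth inhibition vs DMSO (48 h luciferase): tested in triplicate wells of 96-well plates on confluent HFF monolayers, with 1% DMSO wells as negative control in four replicates.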

SMILES | EC50 growth inhibition [1] [nM] | % inhibition of schizont-to-ring transition ([2]; 1 µM) [%] | % inhibition of schizont-to-ring transition ([2]; 3 µM) [%] | % inhibition of schizont-to-ring transition ([2]; 10 µM) [%] | % growth inhibition [3] [%] | plaque count per well [4]
COc1ccc(-c2cc3c(nn2)-c2ccccc2C3=O)cc1 | 781 | 14.8 | 34.7 | 50.6 | < 0 | 29
COc1ccc(Br)cc1C1Nc2ccc3ccccc3c2C2=C1C(=O)CC(c1ccccc1)C2 (configuration not stated) | 387 | < 0 | 4.06 | 29.3 | 12.1 ± 11 | 0
COc1ccc(N2CCN(C(CNC(=O)CC(C)(C)C)c3ccc4c(c3)OCO4)CC2)cc1 (configuration not stated) | 1680 | 8.37 | 17.9 | 32.6 | < 0 | 24
Cc1cccc(Nc2nc(N)c3ccccc3n2)c1 | 669 | 3.41 | 36.1 | 54.2 | < 0 | 0
CCn1c2c(c(=N)c3c1CCC3)CCCC2 | 2640 | 43.8 | 47.9 | 56.4 | < 0 | 34
Clc1ccc2[nH]c3c(NCCCN4CCOCC4)ncnc3c2c1 | 189 | 40.9 | 53.1 | 56.3 | < 0 | 23
CCn1c(SCC(=O)Nc2cc(C(F)(F)F)ccc2Cl)nc2ccccc2c1=O | 6480 | 22.9 | 30.1 | 43.7 | < 0 | 26
CCOC(=O)C1CCN(C(=O)CN2C(=O)c3ccccc3C2c2c[nH]c3ccccc23)CC1 (configuration not stated) | 971 | 15.7 | 32.3 | 65.4 | < 0 | 31
c1ccc(/C2=N/c3ccccc3/N=C(/c3ccccc3)c3ccccc32)cc1 | 1580 | 57.3 | 79.1 | 80.6 | < 0 | 0
Cc1c(C)n(Cc2ccc(F)cc2)c2ccc(C(=O)NCc3ccco3)cc12 | 1770 | 36.3 | 40.3 | 53.4 | < 0 | 21
O=[N+]([O-])c1ccc(C=NNc2nc3ccccc3[nH]2)cc1 | 663 | 29 | 43.8 | 49 | < 0 | 33
CC(C)c1ccc(CNCC(O)c2ccccc2)cc1 (configuration not stated) | 2650 | 7.33 | 20.6 | 59.6 | 10.5 ± 1.3 | 0
COc1ccc(CNC2CCN(c3ccc(NC(=O)c4cccc(Cl)c4)cc3)CC2)cc1OC | 492 | < 0 | 28.3 | 38.6 | 3.03 ± 5.2 | 0
CCN(CC)CCNc1ncnc2c1[nH]c1ccc(Br)cc12 | 225 | 41.8 | 49.9 | 55.8 | 7.24 ± 12 | 26
Cc1ccc(-c2cc(C(=O)Nc3ccc(S(=O)(=O)N4CCCCC4)cc3)[nH]n2)c(O)c1 | 9180 | 28.1 | 58.9 | 67.5 | < 0 | 18
CCc1c(C)c(=N)c2ccccc2n1C | 3380 | 5.96 | 11.3 | 33.6 | < 0 | 25

SMILES | EC50 growth inhibition [1] [nM] | % inhibition of schizont-to-ring transition ([2]; 1 µM) [%] | % inhibition of schizont-to-ring transition ([2]; 3 µM) [%] | % inhibition of schizont-to-ring transition ([2]; 10 µM) [%] | % growth inhibition [3] [%] | plaque count per well [4]
CCOc1cc(Cl)c(C(C)NC(=O)c2cccc(OC)c2)cc1OCC (configuration not stated) | 316 | 42.4 | 76.9 | 78.7 | < 0 | 25
Cc1ccc(CSCc2ccc(C(=O)NC3CC3)o2)cc1 | 1000 | 14.1 | 44.2 | 67.4 | 3.19 ± 5.5 | 25
COc1nc(Nc2ccc(C(C)C)cc2)nc(OC)n1 | 2540 | 20.3 | 32.6 | 54.9 | < 0 | 30
CN1C=C(c2ccc3ccccc3n2)C(c2c[nH]c3ccccc23)c2ccccc21 (configuration not stated) | 638 | 26.7 | 37.7 | 70.6 | < 0 | 0
O=C(O)C1Cc2c([nH]c3ccccc23)C(c2ccc(Cl)cc2Cl)N1 (configuration not stated) | 1300 | 8.54 | 18.6 | 26.4 | < 0 | 32
OC(CNC1CCCCC1)Cn1c2ccccc2c2ccccc21 (configuration not stated) | 985 | 48.9 | 69 | 75.3 | < 0 | 21
CCc1ccc(Nc2cc(C)nc3nc(C)nn23)cc1 | 2280 | 7.01 | 30 | 50.7 | < 0 | 27
COc1ccccc1N1CCN(C(CNS(=O)(=O)c2ccc(Cl)cc2)c2cccnc2)CC1 (configuration not stated) | 2260 | 16 | 20.5 | 49.3 | 4.77 ± 8.3 | 34
COc1ccc(-c2nonc2NC(=O)c2cccc(C)c2)cc1OC | 628 | 32.8 | 59 | 67.1 | 3.28 ± 4.1 | 28
COc1ccc(NC(=O)C2c3ccccc3C(=O)N(CC(C)C)C2c2cccs2)cc1 (configuration not stated) | 46.9 | 78.1 | 78 | 76.6 | < 0 | 27
CC1=C(CC(=O)c2cccc([N+](=O)[O-])c2)C(=O)c2ccccc2C1=O | 9850 | 32.3 | 55.7 | 59.9 | < 0 | 0
Cc1cc(=O)oc2c1ccc1oc(C(=O)c3ccccc3)c(C)c12 | 1870 | 10.7 | 25.9 | 45.3 | < 0 | 28
Cc1ccc(CN2CCC(C(=O)Nc3ccc(-c4cc5ccccc5[nH]4)cc3)CC2)o1 | 2170 | 21.9 | 44.3 | 68.2 | < 0 | 38
OCCNc1nc(Nc2ccc(Cl)c(Cl)c2)nc2ccccc12 | 180 | 51 | 66.3 | 68.9 | < 0 | 0
CCCc1cc(O)c2c3c(c(=O)oc2c1)CN(C)CC3 | 364 | 25.2 | 60.2 | 68 | < 0 | 33
Cc1ccc(Nc2nc(NCCO)c3ccccc3n2)cc1C | 194 | 54.1 | 66.8 | 69.1 | < 0 | 0
